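Following 48 hours of exposure in 96-well plates, responses at five concentrations were used to interpolate endpoints linearly. TGI denotes the concentration required for complete inhibition of growth.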
What was measured:
Experiment in all cases: DTP human tumour cell line panel, 48 h
SW-620 colon = test system: SW-620 colon
MOLT-4 leukemia = test system: MOLT-4 leukemia
SN12C renal = test system: SN12C renal
HT29 colon = test system: HT29 colon
T-47D breast = test system: T-47D breast
ACHN renal = test system: ACHN renal
MDA-MB-231 breast = test system: MDA-MB-231 breast
OVCAR-5 ovarian = test system: OVCAR-5 ovarian
NCI-H522 lung = test system: NCI-H522 lung
UO-31 renal = test system: UO-31 renal
SF-539 CNS = test system: SF-539 CNS
MDA-N = test system: MDA-N
MCF7 breast = test system: MCF7 breast
UACC-257 melanoma = test system: UACC-257 melanoma
MALME-3M melanoma = test system: MALME-3M melanoma
HOP-62 NSCLC = test system: HOP-62 NSCLC
U251 CNS = test system: U251 CNS
SK-OV-3 ovarian = test system: SK-OV-3 ovarian
A498 renal = test system: A498 renal
NCI-H23 lung = test system: NCI-H23 lung

SMILES	TGI (SW-620 colon) [µM]	TGI (MOLT-4 leukemia) [µM]	TGI (SN12C renal) [µM]	TGI (HT29 colon) [µM]	TGI (T-47D breast) [µM]	TGI (ACHN renal) [µM]	TGI (MDA-MB-231 breast) [µM]	TGI (OVCAR-5 ovarian) [µM]	TGI (NCI-H522 lung) [µM]	TGI (UO-31 renal) [µM]	TGI (SF-539 CNS) [µM]	TGI (MDA-N) [µM]	TGI (MCF7 breast) [µM]	TGI (UACC-257 melanoma) [µM]	TGI (MALME-3M melanoma) [µM]	TGI (HOP-62 NSCLC) [µM]	TGI (U251 CNS) [µM]	TGI (SK-OV-3 ovarian) [µM]	TGI (A498 renal) [µM]	TGI (NCI-H23 lung) [µM]
Cc1ccc(C2=Nn3c(nc4sc(C)c(C)c4c3=O)SC2)cc1	> 100	> 100	> 100	> 100	> 100	> 100	> 100	> 100	> 100	> 100	> 100	> 100	> 100	> 100	> 100	> 100	> 100	> 100	> 100	> 100
Cc1cc2c(cc1Cl)SC(NNC(=O)c1ccco1)=NS2(=O)=O	> 10	> 10	> 10	> 10	> 10	> 10	> 10	> 10	> 10	> 10	> 10	> 10	> 10	> 10	> 10	> 10	> 10	> 10	> 10	> 10
Fc1ccc(C(OCCN2CCN(CCCCl)CC2)c2ccc(F)cc2)cc1	> 100	> 100	69.4	40	52.5	> 100	75.5	63.9	36.8	> 100	34.6	45	41.1	47.5	31.8	> 100	> 100	> 100	46.4	50.5
O=C1NCC(CSc2nc3cc(C4CCCc5c4[nH]c4ccccc54)ccc3o2)N1 (centres undefined)	> 100	> 100	> 100	> 100	> 100	> 100	> 100	> 100	> 100	> 100	> 100	> 100	> 100	> 100	> 100	> 100	> 100	> 100	50.6	> 100
CC(CC[C@@H](O)C(C)(C)O)C1[C@@H](O)CC2(C)C3CC(O)C4C(C)(C)[C@@H](OC5OC(CO)C(O)C(O)C5O)CC[C@@]45C[C@@]35CC[C@]12C (some centres undefined)	> 10	> 10	> 10	> 10	> 10	> 10	> 10	> 10	> 10		> 10	> 10	> 10	> 10	> 10	> 10	> 10	> 10	> 10	> 10
CN1CCc2c3n(c4cc(Br)ccc24)[C@H](O)CCCC31 (some centres undefined)	3.47	3.97	> 10	3.28	> 10	> 10	4.38	> 10	3.01	> 10	3.5	3.24	3.24	5.61	4.63	> 10	3.35	> 10	> 10	> 10

Source: PubChem BioAssay (NCI)
